# Measured values reported in ChEMBL document CHEMBL5724696, “Autophagy assay results for EUbOPEN Chemogenomics Library” (2024).
# What was measured:
# Format in all cases: functional, Homo sapiens
# [1] = system: U2OS; assay: (§1) Here: values are normalized to the negative (DMSO; defined as 0% autophagy induction) and positive (250nM Torin1; mTOR inhibitor; defined as maximal inducer of autophagy = 100%) control compounds and represented as % of autophagy induction. […] The impact of autophagy induction on cells is complex and depends on the affected target. As such, the magnitude of a phenotype may not be equally mirrored in the %-value of autophagy induction and vice versa. The dynamics of the induction may indicate the mode of activation: e.g. activation via phosphorylation or a signaling cascade may occur fast, while activation via transcription factors may take considerably longer. […] Of note, treatment concentrations may be sub-optimal for specific compounds, leading to false negative annotations.; settings: Culturing Media DMEM, 1 % Penicillin/Streptomycin, 10% Fetal bovin serum Add-On: No, Screening Media Control DMEM, Screening Media Samples DMEM
# [2] = system: U2OS; assay: as §1; settings: Culturing Media DMEM, 1 % Penicillin/Streptomycin, 10% Fetal bovin serum Add-On: No, Screening Media Control DMEM, Screening Media Samples DMEM; remark: listed apart in the source
# [3] = system: TERT-RPE1; assay: as §1; settings: Compound Concentration 1 uM, Culturing Media DMEM/F12 (1:1), 1 % Penicillin/Streptomycin, 10% Fetal bovin serum Add-On: No, Screening Media Control DMEM/F12 (1:1), Screening Media Samples DMEM/F12 (1:1)
# [4] = Compound Concentration 0.5 uM, Timepoint 12 hours
# [5] = Compound Concentration 0.5 uM, Timepoint 24 hours
# [6] = Compound Concentration 0.5 uM, Timepoint 36 hours
# [7] = Compound Concentration 0.5 uM, Timepoint 60 hours
# [8] = Compound Concentration 2 uM, Timepoint 12 hours
# [9] = Compound Concentration 2 uM, Timepoint 24 hours
# [10] = Compound Concentration 2 uM, Timepoint 36 hours
# [11] = Compound Concentration 2 uM, Timepoint 60 hours
# [12] = Compound Concentration 10 uM, Timepoint 12 hours
# [13] = Compound Concentration 10 uM, Timepoint 24 hours
# [14] = Compound Concentration 10 uM, Timepoint 36 hours
# [15] = Compound Concentration 10 uM, Timepoint 60 hours
Structure (SMILES),"autophagy induction [1, 4] [%]","autophagy induction [1, 5] [%]","autophagy induction [1, 6] [%]","autophagy induction [1, 7] [%]","autophagy induction [1, 8] [%]","autophagy induction [1, 9] [%]","autophagy induction [1, 10] [%]","autophagy induction [1, 11] [%]","autophagy induction [1, 12] [%]","autophagy induction [1, 13] [%]","autophagy induction [1, 14] [%]","autophagy induction [1, 15] [%]","autophagy induction [2, 4] [%]","autophagy induction [2, 5] [%]","autophagy induction [2, 6] [%]","autophagy induction [2, 7] [%]","autophagy induction [2, 8] [%]","autophagy induction [2, 9] [%]","autophagy induction [2, 10] [%]","autophagy induction [2, 11] [%]",also measured
N[C@H](C(=O)O)c1ccc(C(=O)O)c(C(=O)O)c1,-6.378,-5.676,-3.938,114.48,4.454,-1.856,-1.714,114.31,50.3971,15.7905,7.703,113.866,-5.827,-6.791,-11.2953,-15.497,2.006,-3.7569,0.8793,2.43,"autophagy induction [2, 12]: -6.462%; autophagy induction [2, 13]: -8.325%; autophagy induction [2, 14]: -2.853%; autophagy induction [2, 15]: -1.815%"
Cl.Cl.Cl.c1ccc(N2CCN(Cc3nc4ccccc4[nH]3)CC2)nc1,-5.698,-1.19,-1.541,-2680.35,-2.768,-5.039,-4.313,-2193.41,1.805,-0.2364,-2.475,114.324,6.453,3.88,1.316,-5.738,16.1665,12.3628,4.3069,-1.986,"autophagy induction [2, 12]: 1.702%; autophagy induction [2, 13]: -2.316%; autophagy induction [2, 14]: -1.149%; autophagy induction [2, 15]: 1.595%"
Cc1csc2c(N[C@@H](C)CN3CCN(S(=O)(=O)c4ccc(Cl)c(Cl)c4)CC3)ncnc12,-0.007707,-1.5,-0.4844,-654.702,4.101,0.5386,-0.3647,114.139,-10.3141,-6.4207,-4.537,114.595,6.768,8.8628,13.6009,4.711,2.53,6.7674,12.0314,11.989,"autophagy induction [2, 12]: 12.5309%; autophagy induction [2, 13]: 16.4077%; autophagy induction [2, 14]: 26.9308%; autophagy induction [2, 15]: 28.2658%"
CC(C)Oc1ccccc1C(=O)Nc1ccccc1C(=O)Nc1cccc(S(=O)(=O)C(F)(F)F)c1,3.012,-1.737,-1.42,114.268,8.776,3.511,2.272,113.873,-16.0939,-18.3481,-11.2669,115.068,-12.7089,-12.2172,-12.6004,-17.6606,2.367,0.4504,-2.457,-5.945,"autophagy induction [2, 12]: 11.8819%; autophagy induction [2, 13]: 14.0193%; autophagy induction [2, 14]: 13.5851%; autophagy induction [2, 15]: 17.9189%"
CCc1ccc(OCc2ccccc2C(=O)Nc2ccc3nc(C)cc(N)c3c2)cc1.Cl,12.0081,1.625,-0.1664,114.695,-46.9081,-13.0517,3.022,113.026,98.6173,63.101,54.8449,109.07,21.0143,14.8244,13.2935,10.1945,66.4638,63.0279,63.192,56.3816,"autophagy induction [2, 12]: 203.914%; autophagy induction [2, 13]: 166.946%; autophagy induction [2, 14]: 154.332%; autophagy induction [2, 15]: 150.102%"
Cc1c(OCc2cccc(-c3ccc(C(=O)O)cc3)c2)cc2c(c1C)C(=O)C(C1CCCC1)C2 (centres undefined),-1.105,-3.325,-3.23,114.413,3.182,-1.283,-1.767,114.283,2.021,-2.128,0.06533,114.104,16.7916,7.662,9.473,-0.5665,6.511,6.165,2.879,-1.177,"autophagy induction [2, 12]: 6.9%; autophagy induction [2, 13]: 7.1725%; autophagy induction [2, 14]: 8.617%; autophagy induction [2, 15]: 11.2815%"
Cn1cc(C(=O)O)c2ccc(N3CCC(OCc4c(-c5c(Cl)cccc5Cl)noc4C4CC4)CC3)cc21 [TERN-101],–,–,–,–,–,–,–,–,–,–,–,–,–,–,–,–,–,–,–,–,autophagy induction ([3]; Timepoint 12 hours): -2.759%; autophagy induction ([3]; Timepoint 24 hours): -6.198%; autophagy induction ([3]; Timepoint 36 hours): -6.322%; autophagy induction ([3]; Timepoint 60 hours): 3.921%
CCO[C@@H](Cc1ccc(OCCc2ccc(OS(C)(=O)=O)cc2)cc1)C(=O)O [TESAGLITAZAR],–,–,–,–,–,–,–,–,–,–,–,–,–,–,–,–,–,–,–,–,autophagy induction ([3]; Timepoint 12 hours): -2.81%; autophagy induction ([3]; Timepoint 24 hours): -1.872%; autophagy induction ([3]; Timepoint 36 hours): 4.96%; autophagy induction ([3]; Timepoint 60 hours): 2.851%
O=C(O)Cc1cc(I)c(Oc2ccc(O)c(I)c2)c(I)c1 [TIRATRICOL],–,–,–,–,–,–,–,–,–,–,–,–,–,–,–,–,–,–,–,–,autophagy induction ([3]; Timepoint 12 hours): -9.01%; autophagy induction ([3]; Timepoint 24 hours): -9.767%; autophagy induction ([3]; Timepoint 36 hours): -3.577%; autophagy induction ([3]; Timepoint 60 hours): 11.3725%
O=C(O)c1cc(F)c2nc(N3[C@@H]4CC[C@H]3C[C@@H](OCc3c(-c5ccccc5OC(F)(F)F)noc3C3CC3)C4)sc2c1 [TROPIFEXOR],–,–,–,–,–,–,–,–,–,–,–,–,–,–,–,–,–,–,–,–,autophagy induction ([3]; Timepoint 12 hours): -16.0144%; autophagy induction ([3]; Timepoint 24 hours): -6.889%; autophagy induction ([3]; Timepoint 36 hours): 7.971%; autophagy induction ([3]; Timepoint 60 hours): -23.0565%
CC(C)OC(=O)C1=CN(C(=O)c2ccc(F)c(F)c2)CC(C)(C)c2c1[nH]c1ccccc21 [TUROFEXORATE ISOPROPYL],–,–,–,–,–,–,–,–,–,–,–,–,–,–,–,–,–,–,–,–,autophagy induction ([3]; Timepoint 12 hours): -4.447%; autophagy induction ([3]; Timepoint 24 hours): -6.097%; autophagy induction ([3]; Timepoint 36 hours): -6.537%; autophagy induction ([3]; Timepoint 60 hours): 2.1006%
